Source: US9060966B2, “Use of 2,5-dihydroxybenzene derivatives for the treatment of arthritis and pain” (priority 2006, dated 2015)
“Also recorded” adds a separate entry of the source.

Experiments:
Type in all cases: in vivo
[1] = tested on: methacholine induced bronchoconstriction in OVA-sensitized mice; assay: Experimentally induced (OVA) asthma in mice: methacholine bronchoconstriction and BAL cell count; settings: for methacholine induced bronchoconstriction (Penh): methacholine 5 and 20 mg/mL
Method: Effect of potassium 2,5-diacetoxybenzene sulfonate (DABS) on bronchoconstriction in asthmatic mice treated with methacholine. All the mice were exposed to nebulized methacholine (MC; 5 and 20 mg/ml). Bronchoconstriction was determined as the enhanced pause. (Penh), calculated as described in the corresponding example (example 13).
Effect of potassium 2,5-diacetoxybenzene sulfonate (DABS) on the inflammatory cell count in the bronchoalveolar lavage (BAL) in asthmatic mice.
6-9 week old Balb/c mice were used. The ovoalbumin (OVA)/aluminum complex was obtained after dissolving OVA (500 μg/mL) in PBS, and mixing it with an equal volume of 10% aluminum potassium sulfate at pH 6.5 for 1 hour. After centrifuging the pellet (750×g for 5 minutes) the OVA/aluminum pellet was resuspended in distilled water. On day 0, the mice were injected intraperitoneally injected with 100 μg of OVA/aluminum. Eight days later, the mice were anesthetized and exposed to 250 μg of OVA. Later, they were administered 125 μg of OVA on days 15, 18 and 21. […].
The following treatments were administered to the animals: (i.p.) vehicle from day 2, potassium 2,5-diacetoxybencene sulfonate (DABS; 100 mg/kg/day, i.p.) from day 2, DABS (100 mg/kg/day, i.p.) from day 8 and Combivent (20 μg/200 μg in aerosol) on days 20, 21 and 22, the latter as a reference treatment.
In order to evaluate the pulmonary function, the response to methacholine in conscious mice was determined, 24 hours after the last exposure to OVA. The mice were exposed to increasing methacholine concentrations (5 and 20 mg/mL) in the form of aerosol using an ultrasonic nebulizer during 2 minutes. The degree of bronchoconstriction was expressed as the enhanced pause (Penh) which correlates to the mouse air resistance, impedance and pressure within the pleura. The Penh enh was calculated using the formula Penh=[([…]/Rt−1)×(PEF/PIF)], where Te is expiratory time, Rt is relaxation time, PEF is peak expiratory flow and PIF is peak inspiratory flow x 0.67 coefficient.
After measuring airway hyperreactivity, the mice were sacrificed and the bronchoalveolar lavage (BAL) of the right lung was collected. The total number of cells in the BAL fluid was determined.

[2] = tested on: intestinal inflammatory disease (IID) induced by DSS; assay: Intestinal inflammatory disease induced by dextran sulfate sodium in mice; settings: for disease clinical score (0 to 6 scale): first two DSS cycles
Method: The mice were subject to two 7-day cycles of exposure to dextran sulfate sodium (DSS) (from day 1 to 7 and from day 14 to 21) in the drinking water separated by 7 days in which regular water was provided (from 7 to 14). One group was treated with vehicle (0.9% NaCl), another with Solu-Medrol (10 mg/kg/day i.m.), and the other two groups with potassium 2,5-diacetoxybenzene sulfonate (DABS), one of them with 100 mg/kg/day i.p. and the other with 125 mg/kg/day, orally (p.o.). The body weight was normalized on day 0. Data are expressed as the mean±SD of the percentage of the basal weight (day 0) of 10 mice per group.
The mice were subject to two 7-day cycles of exposure to dextran sulfate sodium (DSS) (from day 1 to 7 and from day 14 to 21) in the drinking water separated by 7 days in which regular water was provided (from 7 to 14). One group was treated with vehicle (0.9% NaCl), another with Solu-Medrol (10 mg/kg/day i.m.), and the other two groups with potassium 2,5-diacetoxybenzene sulfonate (DABS), one of them with 100 mg/kg/day i.p. and the other with 125 mg/kg/day, orally (p.o.) Data are expressed as the mean±SD of the clinical score of the disease continuously obtained from 10 mice per each group.
The induction of the intestinal inflammatory disease described below is a representative model for the evaluation of therapeutic strategies to treat Crohn's disease and ulcerative colitis. 7-8 week old female mice of strain C57BL/6J-664 were used. The intestinal inflammatory disease (IID) was induced by feeding the mice with 3% dextran sulfate sodium (DSS; MW 40,000) dissolved in drinking water in 2 cycles. Each cycle consisted of 7 days with 3% DSS in the drinking water separated by 7 days with regular water. A daily clinical evaluation of the animals was performed in which the body weight, the consistency of the faeces and the presence of blood in the faeces were determined. Thus, the validated score of the clinical activity of the disease was evaluated with a 0 to 6 scale, considering the following parameters: consistency of the faeces, presence or absence of fecal blood and loss of weight.
At the end of the first cycle of exposure to DSS, the mice were divided into the following treatment groups: a first group was administered intraperitoneal (i.p) injections of vehicle (0.9% NaCl). Another group received intramuscular injections of Solu-Medrol, a standard IID treatment, at a dose of 10 mg/kg/day. A third group was administered i.p. injections of potassium 2,5-diacetroxybenzene sulfonate (DABS, 100 mg/kg/day). The last group was treated orally with 125 mg/kg day of DABS.

[3] = tested on: uterine tissue implanted in the peritoneal cavity; assay: Rat model of endometriosis (autologous implant, histology); settings: 200 mg/kg/day i.p., two weeks
Text: In these rats, the epithelial layer (a) and the stroma (b) are clearly observed in the endometrium, while longitudinal (c) and circular (d) normal layers of smooth muscle cells are observed in the myometrium adjacent to the peritoneal tissue (e). […] The neovascularization observed in the uterine tissue implanted in control rats (shown with arrows in A) is not present in rats treated with 2,5-dihydroxybenzenesulfonic (DHBS) (C). • D) Magnification of the area marked with a box in C.
Sprague-Dawley rats were anesthetized as described (Fernandez-Tornero C et al. J Biol Chem, 2003). Endometriotic lesions were induced using a known rat model of endometriosis (Vernon M W and Wilson E A. Fertil Steril, 1985). In summary, 2 mm fragments of the cervix were autologously implanted between branches in the mesenteric vascular tree. The rats were treated or not treated (control) daily during two weeks after the surgery with 2,5-dihydroxybenzene sulfonic acid (DHBS) (200 mg/kg; i.p.). Then, the rats were sacrificed and the endometrial ectopic tissue was removed to make its histological examination. […] This example illustrates the therapeutic activity of 2,5-dihydroxybenzene sulfonate (DHBS) in the treatment of endometriosis.

Row | Structure (SMILES) | reduction of BAL cells compared with Combivent ([1]; 100 mg/kg/day i.p.) | methacholine induced bronchoconstriction (Penh) ([1]; 100 mg/kg/day i.p. from day 2) | methacholine induced bronchoconstriction (Penh) ([1]; 100 mg/kg/day i.p. from day 8) | presence of cells in bronchoalveolar lavage (BAL) ([1]; 100 mg/kg/day i.p., from day 2 or day 8) | increase of Penh after exposure to methacholine vs saline ([1]; DABS groups, 100 mg/kg/day i.p.) | disease clinical score (0 to 6 scale) ([2]; 100 mg/kg/day i.p.) | disease clinical score (0 to 6 scale) ([2]; 125 mg/kg/day oral) | loss of weight produced by the two cycles of exposure to DSS ([2]; DABS 100 mg/kg/day i.p. or 125 mg/kg/day p.o., routes not distinguished) | efficacy compared with the standard treatment Solu-Medrol ([2]; body weight and clinical score, Solu-Medrol 10 mg/kg/day i.m.) | histology of the implanted uterine (cervix) tissue, hematoxylin-eosin [3] | neovascularization of the implanted uterine tissue [3]
1 | CC(=O)Oc1ccc(OC(C)=O)c(S(=O)(=O)[O-])c1.[K+] [DABS, potassium 2,5-diacetoxybenzene sulfonate] | even more than the treatment with Combivent | completely prevented | completely prevented | significantly reduced | do not show a significant increase | reduced | reduced | reduced | not lower (in some points it is higher) |  | 
2 | O=S(=O)(O)c1cc(O)ccc1O [DHBS, 2,5-dihydroxybenzenesulfonic acid] |  |  |  |  |  |  |  |  |  | athrophy of the cervix tissue implanted; also recorded: Degeneration of the uterine tissue implanted | not present
